This is an account of results in patent US20240425491A1, “HETEROARYL COMPOUNDS USEFUL IN THE TREATMENT OF COGNITIVE DISORDERS” (University College Cardiff Consultants Limited, priority 2021, published 2024).

Each structure is given as a SMILES string. pKi: −log10 of the molar value.

Test [1] deals with T1, human α5β3γ2 GABAARs in mouse L(tk−) cells (Homo sapiens, UniProt P18507+P31644).
T1 construct: expressed in transfected cells; host or cells: mouse L(tk−) cells, dexamethasone-inducible vector pMSGneo
T1 sequence (P31644 32-462): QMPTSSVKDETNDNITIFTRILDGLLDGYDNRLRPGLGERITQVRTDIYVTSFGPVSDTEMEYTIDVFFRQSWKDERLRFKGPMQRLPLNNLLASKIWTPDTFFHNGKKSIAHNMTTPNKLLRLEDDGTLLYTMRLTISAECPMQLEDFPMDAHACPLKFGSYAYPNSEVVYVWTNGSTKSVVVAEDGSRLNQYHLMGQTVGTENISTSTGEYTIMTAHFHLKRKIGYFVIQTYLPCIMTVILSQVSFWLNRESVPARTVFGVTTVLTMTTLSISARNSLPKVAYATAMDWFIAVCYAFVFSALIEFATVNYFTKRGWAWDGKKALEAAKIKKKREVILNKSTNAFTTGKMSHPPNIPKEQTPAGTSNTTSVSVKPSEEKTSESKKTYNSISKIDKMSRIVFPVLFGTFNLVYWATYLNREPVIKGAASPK
T1 sequence (P28472 26-473 partner): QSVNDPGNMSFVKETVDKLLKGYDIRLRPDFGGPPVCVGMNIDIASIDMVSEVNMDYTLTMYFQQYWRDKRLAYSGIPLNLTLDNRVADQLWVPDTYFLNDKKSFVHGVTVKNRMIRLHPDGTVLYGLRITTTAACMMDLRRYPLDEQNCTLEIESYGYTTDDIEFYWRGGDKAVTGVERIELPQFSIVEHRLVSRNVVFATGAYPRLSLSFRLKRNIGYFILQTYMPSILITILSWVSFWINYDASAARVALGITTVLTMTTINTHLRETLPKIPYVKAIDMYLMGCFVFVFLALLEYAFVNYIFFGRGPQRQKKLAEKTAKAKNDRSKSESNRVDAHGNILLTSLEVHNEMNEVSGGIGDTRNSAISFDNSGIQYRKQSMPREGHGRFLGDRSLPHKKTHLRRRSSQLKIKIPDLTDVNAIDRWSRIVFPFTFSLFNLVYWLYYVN
T1 sequence (P18507 40-475): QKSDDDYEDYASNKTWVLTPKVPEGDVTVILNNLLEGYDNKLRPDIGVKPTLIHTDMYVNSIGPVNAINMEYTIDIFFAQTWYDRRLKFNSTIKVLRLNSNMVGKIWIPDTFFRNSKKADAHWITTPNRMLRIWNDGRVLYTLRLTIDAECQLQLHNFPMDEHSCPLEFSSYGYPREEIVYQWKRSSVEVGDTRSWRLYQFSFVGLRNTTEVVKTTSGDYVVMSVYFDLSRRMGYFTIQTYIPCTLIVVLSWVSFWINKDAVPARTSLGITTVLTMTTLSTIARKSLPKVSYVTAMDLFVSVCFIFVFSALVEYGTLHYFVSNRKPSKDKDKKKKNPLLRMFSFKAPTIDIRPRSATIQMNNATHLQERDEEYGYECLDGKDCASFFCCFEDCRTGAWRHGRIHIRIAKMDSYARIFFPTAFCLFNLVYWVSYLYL
Briefly: In vitro electrophysiological recording assay (α5-GABAAR relative efficacy), QPatch. The test is classed as cell-based. As to conditions: GABA EC10-20. The procedure, abridged: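 Whole-cell QPatch recordings at 20-22° C, −65 mV holding, in dexamethasone-induced (1 μM, 24 h) L(tk−) cells. Compound pre-applied ≥1 min, then co-applied with GABA EC10-20; percentage change in leak-corrected peak current, taken at ≥100× Ki, normalised to DMCM efficacy; 0.1% DMSO final.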
(In general: The patch-clamp technique gives a direct electrical read-out from membranes.)

Test [2] has as its target T2, human recombinant GABAAR containing α5β3γ2 subunits (benzodiazepine site) (Homo sapiens, UniProt P18507+P31644).
T2 construct: expressed in transfected cells; host or cells: mouse L(tk−) cells, dexamethasone-inducible vector pMSGneo
Briefly: In vitro radioligand binding assay (α5-GABAAR Ki). As to conditions: inhibition of [3H]Ro15-1788 binding, membranes of L(tk−) cells expressing human α5β3γ2; read-out: α5-GABAAR Ki. The essentials:
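Membranes from mouse L(tk^−) cells stably expressing human α5β3γ2 GABAAR incubated 1 h at 4° C with 4 nM [^3H]Ro15-1788 and test compound; nonspecific binding with 1 μM TP003. Filter-bound radioactivity counted; Ki from IC50 by Cheng-Prusoff using measured Kd.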

T2 sequence (P31644 32-462): as the sequence (P31644 32-462) above
T2 sequence (P28472 26-473 partner): as the sequence (P28472 26-473 partner) above
T2 sequence (P18507 40-475): as the sequence (P18507 40-475) above

A word on the pKi: it is the negative decadic logarithm of the Ki, by convention in mol/L. As to `COc1nc(-c2cn(C)nc2C)ccc1NC(=O)c1c(-c2ccccc2)noc1C` [Example 20, N-[6-(1,3-Dimethylpyrazol-4-yl)-2-methoxy-3-pyridyl]-5-methyl-3-phenyl-isoxazole-4-carboxamide], the “α5-GABAAR Relative Efficacy (to DMCM), Qpatch” value (from here on “α5-GABAAR Relative Efficacy”) in test [1] (Conc 3 μM) is −0.28. In addition, the pKi in test [2] is 7.86.
In the case of `COc1nc(-n2cnnc2)ccc1NC(=O)c1c(-c2ccccc2)noc1C` [Example 62, N-[2-Methoxy-6-(1,2,4-triazol-4-yl)-3-pyridyl]-5-methyl-3-phenyl-isoxazole-4-carboxamide], the “α5-GABAAR Relative Efficacy” value in test [1] (Conc 0.3 μM) is listed as −0.61. The pKi in test [2] was 8.72.
On to `COc1nc(-c2cn[nH]c2)ccc1NC(=O)c1c(-c2ccccc2)noc1C` [Example 26, N-[2-Methoxy-6-(1H-pyrazol-4-yl)-3-pyridyl]-5-methyl-3-phenyl-isoxazole-4-carboxamide], for which the “α5-GABAAR Relative Efficacy” value in test [1] (Conc 1 μM) was −0.68. Moreover, the negative logarithm of the Ki (pKi) in test [2] was 8.10.
For `COc1nc(-c2ccnc(N(C)C)c2)ccc1NC(=O)c1c(-c2ccccc2)noc1C` [Example 82, N-(2′-(Dimethylamino)-6-methoxy-[2,4′-bipyridin]-5-yl)-5-methyl-3-phenyl-isoxazole-4-carboxamide] the same measures were −0.65 and 8.10.
For `COc1nc(-c2ccncc2N)ccc1NC(=O)c1c(-c2ccccc2)noc1C` [Example 86, N-(3′-Amino-6-methoxy-[2,4′-bipyridin]-5-yl)-5-methyl-3-phenylisoxazole-4-carboxamide] the same measures were −0.65 and 8.49.
`COc1nc(-c2cnc(CN)nc2)ccc1NC(=O)c1c(-c2ccc(F)cc2)nnn1C.Cl` [Example 184, N-(6-(2-(Aminomethyl)pyrimidin-5-yl)-2-methoxypyridin-3-yl)-4-(4-fluorophenyl)-1-methyl-1H-1,2,3-triazole-5-carboxamide hydrochloride]: the “α5-GABAAR Relative Efficacy” value in test [1] (Conc 0.3 μM) was −0.45. In addition, the pKi in test [2] was 8.82.
On to `COc1nc(-c2cnc3cnccn23)ccc1NC(=O)c1c(-c2ccccc2)noc1C` [Example 135, N-(6-(Imidazo[1,2-a]pyrazin-3-yl)-2-methoxypyridin-3-yl)-5-methyl-3-phenylisoxazole-4-carboxamide], for which the “α5-GABAAR Relative Efficacy” value in test [1] (Conc 0.3 μM) is on record as −0.85. Also, the pKi in test [2] was 9.00.
Consider `COc1cc(-n2ccnc2)ccc1NC(=O)c1c(C)nnn1-c1ccccc1` [Example 5, N-(4-(1H-Imidazol-1-yl)-2-methoxyphenyl)-4-methyl-1-phenyl-1H-1,2,3-triazole-5-carboxamide], for which, in test [1] (Conc 1 μM), the “α5-GABAAR Relative Efficacy” value was −0.82. Moreover, in test [2], the negative logarithm of the Ki (pKi) was 7.29.
In the same order, the values of `COc1nc(-c2c[nH]c(=O)c(F)c2)cnc1NC(=O)c1c(-c2ccccc2)noc1C` [Example 133, N-[5-(5-Fluoro-6-oxo-1H-pyridin-3-yl)-3-methoxy-pyrazin-2-yl]-5-methyl-3-phenyl-isoxazole-4-carboxamide] are −0.75 and 8.39.
For the compound `CNCCNc1ncc(-c2ccc(NC(=O)c3c(-c4ccccc4)noc3C)c(OC)n2)cn1.Cl` [Example 170, N-[2-Methoxy-6-[2-[2-(methylamino)ethylamino]pyrimidin-5-yl]-3-pyridyl]-5-methyl-3-phenyl-isoxazole-4-carboxamide hydrochloride], in test [1] (Conc 0.1 μM), the “α5-GABAAR Relative Efficacy” value is on record as −0.84. Besides, the pKi in test [2] was 9.30.
For `COc1nc(-c2cnc(NCCO)nc2)ccc1NC(=O)c1c(-c2ccccc2)noc1C` [Example 175, N-[6-[2-(2-Hydroxyethylamino)pyrimidin-5-yl]-2-methoxy-3-pyridyl]-5-methyl-3-phenyl-isoxazole-4-carboxamide] the same measures were −0.89 and 9.30.
In the same order, the values of `COC(=O)c1ncc(-c2ccc(NC(=O)c3c(-c4ccccc4)noc3C)c(OC)n2)cn1` [Example 70, Methyl 5-[6-methoxy-5-[(5-methyl-3-phenyl-isoxazole-4-carbonyl)amino]-2-pyridyl]pyrimidine-2-carboxylate] are −0.89 and 9.15.
Turning to `COc1nc(-c2cnn(C3CCCCO3)n2)ccc1NC(=O)c1c(-c2ccccc2)noc1C` (stereo not shown) [Example 84, N-(2-Methoxy-6-(2-(tetrahydro-2H-pyran-2-yl)-2H-1,2,3-triazol-4-yl)pyridin-3-yl)-5-methyl-3-phenylisoxazole-4-carboxamide], the “α5-GABAAR Relative Efficacy” value in test [1] (Conc 3 μM) was −0.51. The pKi in test [2] is 7.97.
Consider `COc1nc(-c2ccc3[nH]nnc3c2)ccc1NC(=O)c1c(-c2ccccc2)noc1C` [Example 49, N-[6-(1H-Benzotriazol-5-yl)-2-methoxy-3-pyridyl]-5-methyl-3-phenyl-isoxazole-4-carboxamide], for which the “α5-GABAAR Relative Efficacy” value in test [1] (Conc 1 μM) is −0.83. For the same compound, in test [2], the pKi was 8.10.
As to `COc1nc(-c2cnc(N3CCCC(CO)C3)nc2)ccc1NC(=O)c1c(-c2ccccc2)noc1C` (stereo not shown) [Example 92, N-(6-(2-(3-(Hydroxymethyl)piperidin-1-yl)pyrimidin-5-yl)-2-methoxypyridin-3-yl)-5-methyl-3-phenylisoxazole-4-carboxamide], the “α5-GABAAR Relative Efficacy” value in test [1] (Conc 0.3 μM) is given as −0.66. The pKi in test [2] is 8.52.
`COc1nc(-c2cnn(C(C)C)c2)ccc1NC(=O)c1c(-c2ccccc2)noc1C` [Example 21, N-[6-(1-Isopropylpyrazol-4-yl)-2-methoxy-3-pyridyl]-5-methyl-3-phenyl-isoxazole-4-carboxamide]: in test [1] (Conc 3 μM), the “α5-GABAAR Relative Efficacy” value is −0.48. In addition, in test [2], the negative logarithm of the Ki (pKi) is 7.69.
Turning to `COc1nc(-c2cnc(C(=O)N(C)C)nc2)ccc1NC(=O)c1c(-c2ccccc2)noc1C` [Example 130, N-[6-[2-(Dimethylcarbamoyl)pyrimidin-5-yl]-2-methoxy-3-pyridyl]-5-methyl-3-phenyl-isoxazole-4-carboxamide], the “α5-GABAAR Relative Efficacy” value in test [1] (Conc 0.3 μM) is −0.55. Besides, in test [2], the pKi is 8.64.
With `COc1nc(-c2cncnc2OC)ccc1NC(=O)c1c(-c2ccccc2)noc1C` [Example 93, N-(2-Methoxy-6-(4-methoxypyrimidin-5-yl)pyridin-3-yl)-5-methyl-3-phenyl-isoxazole-4-carboxamide], in test [1] (Conc 1 μM), the “α5-GABAAR Relative Efficacy” value was −0.73. Moreover, the pKi in test [2] is 8.09.
As for `Cc1onc(-c2ccc(F)cc2)c1C(=O)Nc1ccc(-n2ccnc2)nc1OC(C)C` [Example 204, 3-(4-Fluorophenyl)-N-(6-imidazol-1-yl-2-isopropoxy-3-pyridyl)-5-methyl-isoxazole-4-carboxamide], in test [1] (Conc 0.1 μM), the “α5-GABAAR Relative Efficacy” value is on record as −0.39. In addition, the pKi in test [2] was 8.96.
With `COc1cc(-n2ccnc2)ccc1NC(=O)c1c(-c2ccccc2)noc1C` [Example 2, N-(4-Imidazol-1-yl-2-methoxy-phenyl)-5-methyl-3-phenyl-isoxazole-4-carboxamide], the “α5-GABAAR Relative Efficacy” value in test [1] (Conc 1 μM) was −0.54. Moreover, in test [2], the negative logarithm of the Ki (pKi) is 8.62.
For `COc1nc(-n2cncc2CN(C)C)ccc1NC(=O)c1c(-c2ccccc2)noc1C` [Example 153, N-[6-[5-[(Dimethylamino)methyl]imidazol-1-yl]-2-methoxy-3-pyridyl]-5-methyl-3-phenyl-isoxazole-4-carboxamide], the “α5-GABAAR Relative Efficacy” value in test [1] (Conc 0.3 μM) is given as −0.83. For the same compound, the negative-log Ki (pKi) in test [2] was 8.77.
In the case of `CNCc1ncc(-c2cnc(NC(=O)c3c(-c4ccccc4)noc3C)c(OC)n2)cn1.Cl` [Example 169, N-[3-Methoxy-5-[2-(methylaminomethyl)pyrimidin-5-yl]pyrazin-2-yl]-5-methyl-3-phenyl-isoxazole-4-carboxamide hydrochloride], in test [1] (Conc 1 μM), the “α5-GABAAR Relative Efficacy” value is −0.88. Also, the pKi in test [2] was 8.28.
Regarding `Cc1onc(-c2ccc(F)cc2)c1C(=O)Nc1ccc(-c2cnc(CN)nc2)nc1OC(C)C.Cl` [Example 205, N-(6-(2-(Aminomethyl)pyrimidin-5-yl)-2-isopropoxypyridin-3-yl)-3-(4-fluorophenyl)-5-methylisoxazole-4-carboxamide hydrochloride], the “α5-GABAAR Relative Efficacy” value in test [1] (Conc 0.1 μM) is reported as −0.61. Further, the negative-log Ki (pKi) in test [2] is 9.40.
With `COc1cc(-c2cccc3nccn23)cnc1NC(=O)c1c(-c2ccccc2)noc1C` [Example 29, N-(5-Imidazo[1,2-a]pyridin-5-yl-3-methoxy-2-pyridyl)-5-methyl-3-phenyl-isoxazole-4-carboxamide], the “α5-GABAAR Relative Efficacy” value in test [1] (Conc 0.3 μM) is reported as −0.53. Moreover, the negative-log Ki (pKi) in test [2] is 8.82.
For `COc1ncc(-c2cnc(NC(=O)c3c(-c4ccccc4)noc3C)c(OC)n2)cn1` [Example 72, N-[3-Methoxy-5-(2-methoxypyrimidin-5-yl)pyrazin-2-yl]-5-methyl-3-phenyl-isoxazole-4-carboxamide] the same measures were −1.04 and 8.70.
Consider `COc1nc(-c2ccc(NC(C)=O)nc2)cnc1NC(=O)c1c(-c2ccccc2)noc1C` [Example 147, N-[5-(6-Acetamido-3-pyridyl)-3-methoxy-pyrazin-2-yl]-5-methyl-3-phenyl-isoxazole-4-carboxamide], for which the “α5-GABAAR Relative Efficacy” value in test [1] (Conc 0.1 μM) is recorded as −0.67. The negative logarithm of the Ki (pKi) in test [2] is 9.30.
